Like-named read-outs stand apart in the source and are kept apart here.
Columns and labels:
human liver cancer [1] = assay: Swiss mouse model of human liver cancer, growth of tumors; settings: 31st day from tumor inoculation; 30 days treatment; yeast 0.3 ml oral once per day, CTX 30 mg/kg iv once a week
Source text: The animals were generally anaesthetized. […] Afterwards, the opening was sutured and the mice were put back into the cage.
(§1) The mice injected with tumor cells were divided into 4 experimental groups of ten mice per group and one control group. The four experimental groups were triplicated (i.e., using a total of 120 mice in the experimental groups).
(§2) The mice received the biological compositions, untreated yeast cells, CTX or saline on the same day as the tumor cells were transplanted. The mice in group CK2 also started receiving saline on the same day as the other four groups. The biological compositions, untreated yeast cells and saline were administered orally by a feeding tube and the CTX by intravenous injection for 30 consecutive days.

Liver tumor H-22 [2] = assay: C3H mouse model of liver cancer (H-22), growth of tumors; settings: 31st day from tumor inoculation; 30 days treatment; yeast 0.3 ml oral once per day, CTX 30 mg/kg iv per day
Protocol: (§3) The biological composition comprising 10^8 cells per ml of activated and conditioned yeast cells of the strain Saccharomyces cerevisiae Hansen strain AS2.503 was prepared by the methods described in Section 5.1 and subsections therein.
as §1, §2

human liver cancer [3] = settings: for Number of live animals remaining in the groups after 30 days of treatment: 30 mice per group
Protocol: (§4) The survival time of mice after tumor injection and treatment was studied.
The biological composition comprising […] of activated and conditioned yeast cells of the strain Saccharomyces cerevisiae Hansen strain AS2.503 was prepared by the methods described in Section 5.1 and subsections therein.
The animals were prepared in a similar manner as described in Section 6.1.
The mice injected with tumor cells were divided into 4 experimental groups of ten mice per group and one control group. The four experimental groups were triplicated (i.e., using a total of 120 mice in the experimental groups). In group 2AY, the mice received 0.3 ml of the biological composition once per day. In group 2NY, the mice received 0.3 ml of the untreated yeast cells once per day. In group 2CTX, the mice were injected intravenously with 30 mg of cyclophosphamide (CTX) per kg body weight once a week for four weeks. In group 2CK1, the mice received 0.3 ml of physiological saline once per day.
as §2, with “2CK2” for “CK2”, “days. The mice were observed over 6 months from the day of their inoculation and survival was recorded. The weight of the mice, the weight of the liver, and the weight of the tumor were determined by standard techniques.” for “days.”

Liver tumor H-22 [4] = settings: for Number of live animals remaining in the groups after 30 days of treatment: 30 mice per group
Protocol: as §4, §3
The animals were prepared in a similar manner as described in Section 8.1.
The mice injected with tumor cells were divided into 4 experimental groups of […] per group and one control group. The four experimental groups were triplicated […]. In group 2AY, the mice received 0.3 ml of the biological composition once per day. In group 2NY, the mice received 0.3 ml of the untreated yeast cells once per day. In group 2CTX, the mice were injected intravenously with 30 mg of cyclophosphamide (CTX) per kg body weight per day. In group 2CK1, the mice received 0.3 ml of physiological saline once per day.
The mice received the biological compositions, untreated yeast cells, CTX or saline on the same day as the tumor cells were transplanted. The mice in group 2CK2 also started receiving saline on the same day as the other four groups. The biological compositions, untreated yeast cells and saline were administered orally by a feeding tube and the CTX by intravenous injection for 30 consecutive days. The mice were observed over 6 months from the day of their inoculation and survival was recorded.

[5] = 0 month after cessation of treatment
[6] = 1 month after cessation of treatment
[7] = 2 months after cessation of treatment
[8] = 3 months after cessation of treatment
[9] = 4 months after cessation of treatment
[10] = 5 months after cessation of treatment
[11] = 6 months after cessation of treatment
[12] = from injection of tumor cells, 30 days treatment
[13] = mice that survived, observed over 6 months

O=P1(N(CCCl)CCCl)NCCCO1 (stereo not shown) [CTX, cyclophosphamide]
mean weight of liver and standard deviation (human liver cancer [1]): 1,372 ± 8 mg | mean weight of mice and standard deviation (human liver cancer [1]): 17 ± 0.9 g | mean weight of tumor nodules and standard deviation (human liver cancer [1]): 249 ± 9 mg | mean weight of liver and standard deviation (Liver tumor H-22 [2]): 1,351 ± 9 mg | mean weight of mice and standard deviation (Liver tumor H-22 [2]): 18.8 ± 0.7 g | mean weight of tumor nodules and standard deviation (Liver tumor H-22 [2]): 253 ± 8 mg | Number of live animals remaining in the groups after 30 days of treatment (human liver cancer [3]; [5]): 30 | Number of live animals remaining in the groups after 30 days of treatment (human liver cancer [3]; [6]): 30 | Number of live animals remaining in the groups after 30 days of treatment (human liver cancer [3]; [7]): 27 | Number of live animals remaining in the groups after 30 days of treatment (human liver cancer [3]; [8]): 22 | Number of live animals remaining in the groups after 30 days of treatment (human liver cancer [3]; [9]): 19 | Number of live animals remaining in the groups after 30 days of treatment (human liver cancer [3]; [10]): 7 | Number of live animals remaining in the groups after 30 days of treatment (human liver cancer [3]; [11]): 0 | survival of mice bearing liver cancer cells (human liver cancer [3]; [12]): all died after four months | mean weight of liver and standard deviation (human liver cancer [3]; [13]): all animals dead | mean weight of mice and standard deviation (human liver cancer [3]; [13]): all animals dead | mean weight of tumor nodules and standard deviation (human liver cancer [3]; [13]): all animals dead | Number of live animals remaining in the groups after 30 days of treatment (Liver tumor H-22 [4]; [5]): 30 | Number of live animals remaining in the groups after 30 days of treatment (Liver tumor H-22 [4]; [6]): 27 | Number of live animals remaining in the groups after 30 days of treatment (Liver tumor H-22 [4]; [7]): 24 | Number of live animals remaining in the groups after 30 days of treatment (Liver tumor H-22 [4]; [8]): 19 | Number of live animals remaining in the groups after 30 days of treatment (Liver tumor H-22 [4]; [9]): 11 | Number of live animals remaining in the groups after 30 days of treatment (Liver tumor H-22 [4]; [10]): 3 | Number of live animals remaining in the groups after 30 days of treatment (Liver tumor H-22 [4]; [11]): 0 | survival of mice bearing liver cancer cells (Liver tumor H-22 [4]; [12]): all died after four months | mean weight of liver and standard deviation (Liver tumor H-22 [4]; [13]): all animals dead | mean weight of mice and standard deviation (Liver tumor H-22 [4]; [13]): all animals dead | mean weight of tumor nodules and standard deviation (Liver tumor H-22 [4]; [13]): all animals dead
